Assay results reported in ChEMBL document CHEMBL2331111, “Antioxidant and anti-inflammatory meroterpenoids from the brown alga Cystoseira usneoides” (J Nat Prod, 2013).
Active and inactive are the calls of the source. The calls are words filed in the database; no cut-off is given here.

Assays:
THP-1 [1] = assay: Antiinflammatory activity in PMA-treated human THP1 cells assessed as inhibition of LPS-induced TNFalpha production at 2 uM incubated for 24 hrs prior to LPS challenge measured after 24 hrs by ELISA; type: functional, cell-based
THP-1 [2] = assay: Cytotoxicity against PMA-treated human THP1 cells assessed as cell viability at 8 to 10 uM after 48 hrs by SRB assay; type: cell-based; settings: thp-1, 48 h
[3] = Ratio of trolox EC50 to compound EC50 for ABTS free radical scavenging activity
[4] = Antioxidant activity assessed as ABTS free radical scavenging activity measured up to 6 mins by spectrophotometric analysis; type: functional
THP-1 [5] = assay: Antiinflammatory activity in PMA-treated human THP1 cells assessed as inhibition of LPS-induced TNFalpha production at 10 uM incubated for 24 hrs prior to LPS challenge measured after 24 hrs by ELISA relative to control; type: functional
THP-1 [6] = assay: Antiinflammatory activity in PMA-treated human THP1 cells assessed as inhibition of LPS-induced TNFalpha production at 8 uM incubated for 24 hrs prior to LPS challenge measured after 24 hrs by ELISA relative to control; type: functional
THP-1 [7] = assay: Antiinflammatory activity in PMA-treated human THP1 cells assessed as inhibition of LPS-induced TNFalpha production at 6 uM incubated for 24 hrs prior to LPS challenge measured after 24 hrs by ELISA relative to control; type: functional

| Compound | inhibition (THP-1 [1]) | Activity (THP-1 [2]) | Ratio EC50 [3] | EC50 [4] [µM] | inhibition at 10 µM (THP-1 [5]) [%] | inhibition at 8 µM (THP-1 [6]) [%] | inhibition at 6 µM (THP-1 [7]) [%] |
| --- | --- | --- | --- | --- | --- | --- | --- |
| COc1c(C)cc(O)cc1C/C=C(\C)CC(=O)/C=C(/C)CCCC(C)C(=O)/C=C/C(C)(C)O (centres undefined) | inactive | Non-toxic | 0.98 | 26.3 | – | – | – |
| COc1c(C)cc(O)cc1C/C=C(\C)CC(=O)/C=C(\C)CCCC(C)C(=O)/C=C/C(C)(C)O (centres undefined) | – | – | 1.06 | 24.5 | – | – | – |
| COc1c(C)cc(O)cc1C/C=C(\C)CC(=O)/C=C(\C)CCCC(C)(O)C(=O)/C=C/C(C)(C)O (centres undefined) | – | Non-toxic | 0.78 | 33.1 | 64 | – | – |
| COc1c(C)cc(O)cc1/C=C/C(C)(O)CC(=O)/C=C(/C)CCCC(C)C(=O)/C=C/C(C)(C)O (centres undefined) [CYSTODIONE A] | – | Non-toxic | 1.15 | 22.5 | – | 33 | – |
| COc1c(C)cc(O)cc1/C=C/C(C)(O)CC(=O)/C=C(\C)CCCC(C)C(=O)/C=C/C(C)(C)O (centres undefined) [CYSTODIONE B] | – | Non-toxic | 1.06 | 24.4 | – | – | 11 |
| COc1c(C)cc(O)cc1/C=C/C(C)(O)CC(=O)/C=C(/C)CCCC(C)=O (centres undefined) [CYSTODIONE C] | – | – | 0.46 | 55.9 | – | – | – |
| COc1c(C)cc(O)cc1/C=C/C(C)(O)CC(=O)/C=C(\C)CCCC(C)=O (centres undefined) [CYSTODIONE D] | – | Non-toxic | 0.58 | 44.7 | 11 | – | – |
| COc1c(C)cc(O)cc1C/C=C(\C)CC(=O)/C=C(/C)CCCC(C)=O [CYSTOMEXICONE A] | – | – | 0.5 | 51.6 | – | – | – |
| COc1c(C)cc(O)cc1C/C=C(\C)CC(=O)/C=C(\C)CCCC(C)=O [CYSTOMEXICONE B] | – | – | 0.78 | 33.3 | – | – | – |
| Cc1c(C)c2c(c(C)c1O)CCC(C)(C(=O)O)O2 (centres undefined) [TROLOX] | – | – | 1 | 25.9 | – | – | – |
| COc1c(C)cc(O)cc1C/C=C(\C)CC(=O)/C=C(/C)CCCC(C)(O)C(=O)/C=C/C(C)(C)O (centres undefined) [USNEOIDONE Z] | – | Non-toxic | 0.6 | 43.1 | 73 | – | – |
